Data set [1] relates to skin cells. The data set is described as follows: potentiating glutathione synthesis within skin cells. Format: cell-based. Conditions: compared with cystine.
The nature of data set [2]: solubility of NDAC relative to cystine. Format: physicochemical.
For data set [3] the following is noted: organic solvents such as alcohols, ethers, esters, ketones; cited from earlier work.

Consider `CC(=O)N[C@@H](CSSC[C@H](NC(C)=O)C(=O)O)C(=O)O` [NDAC, N,N′-diacetyl-L-cystine], for which the “performance for potentiating glutathione synthesis within skin cells” value in data set [1] was “comparable to that of cystine”. Moreover, the “solubility compared with cystine” value in data set [2] was “more soluble”.
For the compound `N[C@@H](CSSC[C@H](N)C(=O)O)C(=O)O` [cystine, L-Cystine], the “solubility in organic solvents” value in data set [3] was “practically insoluble”.

The values are drawn from patent US20230250055A1, “PROCESS OF MAKING N,N-DIACETYL-L-CYSTINE DISODIUM SALT FROM CYSTINE AND ACETYL CHLORIDE IN METHANOL IN THE PRESENCE OF SODIUM HYDROXIDE” (Conopco, Inc., d/b/a UNILEVER, priority 2020, published 2023).
